Assay results published in patent US9469616B2, “Cyclic compounds and methods of making and using the same” (Cellceutix Corporation, priority 2011, dated 2016).
Values after ≈ are worked out from the molar mass of the structure shown.

Legend:
Format in all cases: cell-based
P. aeruginosa (10145) = experiment: MIC assay (Table 1); settings: Pseudomonas aeruginosa, isolate 10145
S. aureus (27660) = experiment: MIC assay (Table 1); settings: Staphylococcus aureus, isolate 27660
K. pneumoniae (13883) = experiment: MIC assay (Table 1); settings: Klebsiella pneumoniae, isolate 13883, read-out: MIC50 K. Pnuemnoiae
Method: (§1) The compounds are screened for antimicrobial activity against a number of clinically relevant pathogens. Minimum Inhibitory Concentrations (MIC) of each of the compounds are determined using standard procedures for clinical ocular isolates of Ciprofloxacin Susceptible (CS) S. aureus (CSSA), Ciprofloxacin Resistant (CR) S. aureus (CRSA), CS S. epidermidis (CSSE), CR S. epidermidis (CRSE), St. pneumoniae (SP), St. viridans group (SV), Moraxella Species (MS) (including Moraxella catarrhalis), H. influenzae (HI), P. aeruginosa (PA), Serratia marcescens (SM), S. aureus fluoroquinolone-susceptible, S. aureus fluoroquinolone-resistant, S. epidermidis (Coagulase-negative Staphylococcus) fluoroquinolone-susceptible, S. epidermidis (Coagulase-negative Staphylococcus) fluoroquinolone-resistant, and Serratia marcescens.
(§2) On the day of testing, a 640 μg/m (1280 μg/m for Serratia marcescens and Pseudomonas aeruginosa) concentration is prepared from a 1% stock solution in 0.01% acetic acid, 0.2% BSA in polypropylene tubes.
(§3) Ten μl of diluted 10× test agents is added to each well of one row of the 96 well polypropylene plates from column 2 to column 12 (column 1 is a control for bacteria alone, with no peptide). […] The same peptide is in each of the 8 rows. One plate contains dilutions of one test agent and 8 bacterial isolates.
(§4) Ninety μl of the bacterial suspensions is dispensed in each well from column 1 to column 12. Each bacterial isolate is placed in one row of a 96 well polypropylene plate containing the test agents. The plates are placed on shaker at 15 minutes at room temperature, and then incubated at 37° C. overnight. MICs are determined visually as the lowest concentration of drug that inhibits visible bacterial growth.
(§5) Data is expressed as MIC50 in μg/ml. The bacterial isolates were as follows: E. coli (25922); S. aureus (27660); E. faecalis (29212); P. aeruginosa (10145); and K. pneumoniae (13883).

E. faecalis (29212) = experiment: MIC assay (Table 1); settings: Enterococcus faecalis, isolate 29212
Method: as §1, §2, §3, §4, §5

NIH/3T3 cells = experiment: Cytotoxicity colorimetric assay; settings: Mus musculus, NIH3T3, 1 h, one hour incubation in serum-free media
Method: Cytotoxicity of the compounds are evaluated in a colorimetric assay using a transformed human liver cell line (HepG2, HB-8065) and an embryonic mouse cell line (NIH/3T3 cells, CRL-1658). This assay measures the bioreduction of a novel tetrazolium compound to a soluble formazan product by viable cells. HepG2 cells are seeded in 96 well plates at 2×10^4 cells/well in MEM medium with 10% fetal bovine serum (FBS) 24 hours prior to use. NIH/3T3 cells are seeded in 96 well plates at 2×10^4 cells/well in DMEM medium with 10% bovine calf serum (BCS) 24 hours prior to use. Cell monolayers are rinsed in serum-free media and incubated for one hour with a Compound in serum-free media. After incubation, the media is replaced with serum supplemented media and live cells are measured using the Cell Titer 96 Aqueous […] Assay kit (Promega, Madison, Wis.). EC50 values are determined using a four parameter logistic equation: Y=Bottom+(Top−Bottom)/(1+10^((Log EC50−X)*HillSlope)). […] Data is expressed as EC50 in μg/ml. Cytotoxicity is evaluated in a colorimetric assay using a transformed human liver cell line (HepG2, HB-8065) and an embryonic mouse cell line (NIH/3T3 cells, CRL-1658). This assay measures the bioreduction of a novel tetrazolium compound to a soluble formazan product by viable cells. HepG2 cells are seeded in 96 well plates at 3×10^4 cells/well in MEM medium with 10% fetal bovine serum (FBS) 24 hours prior to use. NIH/3T3 cells are seeded in 96 well plates at 2×10^4 cells/well in DMEM medium with 10% bovine calf serum (BCS) 24 hours prior to use. Cell monolayers are rinsed in serum-free media and incubated for one hour with test agent in serum-free media. After incubation, the media is replaced with serum supplemented media and live cells are measured using the Cell Titer 96 Aqueous […] Assay kit (Promega, Madison, Wis.). EC50 values are determined using a four parameter logistic equation: Y=Bottom+(Top−Bottom)/(1+10^((Log EC50−X)*HillSlope)).

E. coli (25922) = experiment: MIC assay (Table 1); settings: Escherichia coli, isolate 25922
HepG2 = experiment: Cytotoxicity colorimetric assay; settings: Homo sapiens, HepG2, 1 h, one hour incubation in serum-free media
Method: Cytotoxicity of the compounds are evaluated in a colorimetric assay using a transformed human liver cell line (HepG2, HB-8065) and an embryonic mouse cell line (NIH/3T3 cells, CRL-1658). This assay measures the bioreduction of a novel tetrazolium compound to a soluble formazan product by viable cells. HepG2 cells are seeded in 96 well plates at 2×10^4 cells/well in MEM medium with 10% fetal bovine serum (FBS) 24 hours prior to use. NIH/3T3 cells are seeded in 96 well plates at 2×10^4 cells/well in DMEM medium with 10% bovine calf serum (BCS) 24 hours prior to use. Cell monolayers are rinsed in serum-free media and incubated for one hour with a Compound in serum-free media. After incubation, the media is replaced with serum supplemented media and live cells are measured using the Cell Titer 96 Aqueous […] Assay kit (Promega, Madison, Wis.). EC50 values are determined using a four parameter logistic equation: Y=Bottom+(Top−Bottom)/(1+10^((Log EC50−X)*HillSlope)). Actual results from a representative cytotoxicity assay are shown below in Table 3. Data is expressed as EC50 in μg/ml. Cytotoxicity is evaluated in a colorimetric assay using a transformed human liver cell line (HepG2, HB-8065) and an embryonic mouse cell line (NIH/3T3 cells, CRL-1658). This assay measures the bioreduction of a novel tetrazolium compound to a soluble formazan product by viable cells. HepG2 cells are seeded in 96 well plates at 3×10^4 cells/well in MEM medium with 10% fetal bovine serum (FBS) 24 hours prior to use. NIH/3T3 cells are seeded in 96 well plates at 2×10^4 cells/well in DMEM medium with 10% bovine calf serum (BCS) 24 hours prior to use. Cell monolayers are rinsed in serum-free media and incubated for one hour with test agent in serum-free media. After incubation, the media is replaced with serum supplemented media and live cells are measured using the Cell Titer 96 Aqueous […] Assay kit (Promega, Madison, Wis.). EC50 values are determined using a four parameter logistic equation: Y=Bottom+(Top−Bottom)/(1+10^((Log EC50−X)*HillSlope)).

Staphylococcus aureus = experiment: Antimicrobial activity (MIC) of aryl compounds (Table 2)
Description: (§6) A new series of aryl compounds was designed to evaluate the effect of charge and aromatic group hydrophobicity on the biological activity while still maintaining an amphiphilic topology. Four and six cationic charges were investigated, and three different central rings were used to tune the overall hydrophobicity: benzene, naphthalene, and phenylbenzene. The hydrophobicities of the aryl compounds were quantified using reversed-phase HPLC retention times (Rt). The antimicrobial activities (expressed as minimum inhibitory concentration (MIC)) of these compounds were tested against four pathogens, including both Gram-negative and Gram-positive bacteria, and their hemolysis (evaluated in terms of HC50, the lowest concentration that causes 50% hemolysis of red blood cells (RBCs)) was tested against human RBCs.

Escherichia coli = experiment: as above
Description: as §6

| SMILES | MIC50 (P. aeruginosa (10145)) [µg/mL] | MIC50 (S. aureus (27660)) [µg/mL] | MIC50 (K. pneumoniae (13883)) [µg/mL] | MIC50 (E. faecalis (29212)) [µg/mL] | EC50 (NIH/3T3 cells) [µg/mL] | MIC50 (E. coli (25922)) [µg/mL] | EC50 (HepG2) [µg/mL] | Selectivity (HC50/MIC) S. aureus (Staphylococcus aureus; HC50/MIC) | MIC (Staphylococcus aureus; Staphylococcus aureus, Table 2, read-out: MIC S. aureus) [µg/mL] | MIC (Escherichia coli; Escherichia coli, Table 2) [µg/mL] | Selectivity (HC50/MIC) E. coli (Escherichia coli; HC50/MIC) |
| --- | --- | --- | --- | --- | --- | --- | --- | --- | --- | --- | --- |
| NCCCOc1ccc(-n2cc(-c3cccc(-c4cn(-c5ccc(OCCCN)c(OCCCN)c5)nn4)c3)nn2)cc1OCCCN [Compound 101] | 50 (≈ 76.1 µM) | 12.5 (≈ 19 µM) | > 50 | 12.5 (≈ 19 µM) | 52.4 (≈ 79.8 µM) | > 50 | – | – | – | – | – |
| N=C(N)NCCCOc1cc(-c2cn(-c3cccc(OCCCNC(=N)N)c3)nn2)cc(-c2cn(-c3cccc(OCCCNC(=N)N)c3)nn2)c1 [Compound 106] | 50 (≈ 70.4 µM) | 1.56 (≈ 2.2 µM) | > 50 | 50 (≈ 70.4 µM) | 191 (≈ 269 µM) | 25 (≈ 35.2 µM) | – | – | – | – | – |
| N=C(N)NCCCOc1cc(OCCCNC(=N)N)cc(-c2cc(-c3ccccc3)cc(-c3cc(OCCCNC(=N)N)cc(OCCCNC(=N)N)c3)c2)c1 [Compound 114] | 12.5 (≈ 16.3 µM) | 0.78 (≈ 1.02 µM) | 1.56 (≈ 2.03 µM) | 3.13 (≈ 4.08 µM) | 33.6 (≈ 43.8 µM) | 1.56 (≈ 2.03 µM) | 40.4 (≈ 52.7 µM) | – | – | – | – |
| NCCCOc1cc(-c2cn(-c3cc(OCCCN)cc(OCCCN)c3)nn2)cc(-c2cn(-c3cc(OCCCN)cc(OCCCN)c3)nn2)c1 [Compound 105] | 50 (≈ 68.5 µM) | 25 (≈ 34.3 µM) | > 50 | > 50 | 83.4 (≈ 114 µM) | 50 (≈ 68.5 µM) | – | – | – | – | – |
| NCCCOc1cc(OCCCN)cc(-c2cccc(-c3cc(OCCCN)cc(OCCCN)c3)c2)c1 [Compound 111] | > 50 | 12.5 (≈ 23.9 µM) | > 50 | 50 (≈ 95.7 µM) | 814 (≈ 1560 µM) | 50 (≈ 95.7 µM) | > 1020 | >80 | 12.5 (≈ 23.9 µM) | 50 (≈ 95.7 µM) | >20 |
| NCCCOc1cc(OCCCN)cc(-c2cc(-c3cc(OCCCN)cc(OCCCN)c3)cc(-c3cc4ccccc4[nH]3)c2)c1 [Compound 108] | 25 (≈ 39.2 µM) | 1.56 (≈ 2.45 µM) | > 50 | 12.5 (≈ 19.6 µM) | – | 6.25 (≈ 9.8 µM) | – | – | – | – | – |
| NCCCOc1ccc(-n2cc(-c3ccc4ccc(-c5cn(-c6ccc(OCCCN)c(OCCCN)c6)nn5)cc4c3)nn2)cc1OCCCN [Compound 103] | 50 (≈ 70.7 µM) | 25 (≈ 35.4 µM) | > 50 | 25 (≈ 35.4 µM) | 32.7 (≈ 46.3 µM) | > 50 | 55.5 (≈ 78.5 µM) | – | – | – | – |
| N=C(N)NCCCOc1cc(-c2cn(-c3cc(OCCCNC(=N)N)cc(OCCCNC(=N)N)c3)nn2)cc(-c2cn(-c3cc(OCCCNC(=N)N)cc(OCCCNC(=N)N)c3)nn2)c1 [Compound 100] | > 50 | 50 (≈ 53.2 µM) | > 50 | 25 (≈ 26.6 µM) | 23.2 (≈ 24.7 µM) | 50 (≈ 53.2 µM) | 48.6 (≈ 51.7 µM) | – | – | – | – |
| N=C(N)NCCCOc1cc(OCCCNC(=N)N)cc(-c2cccc(-c3cc(OCCCNC(=N)N)cc(OCCCNC(=N)N)c3)c2)c1 [Compound 109] | 12.5 (≈ 18.1 µM) | 0.4 (≈ 0.579 µM) | 6.25 (≈ 9.05 µM) | 1.56 (≈ 2.26 µM) | 69 (≈ 99.9 µM) | 1.56 (≈ 2.26 µM) | – | – | – | – | – |
| NCCCOc1cc(OCCCN)cc(-n2cc(-c3ccc4ccc(-c5cn(-c6cc(OCCCN)cc(OCCCN)c6)nn5)cc4c3)nn2)c1 [Compound 102] | > 50 | 12.5 (≈ 17.7 µM) | 50 (≈ 70.7 µM) | 25 (≈ 35.4 µM) | 36.1 (≈ 51.1 µM) | > 50 | 48.4 (≈ 68.5 µM) | – | – | – | – |
| NCCCOc1cc(C#Cc2ccc3ccc(C#Cc4cc(OCCCN)cc(OCCCN)c4)cc3c2)cc(OCCCN)c1 [Compound 120] | 6.25 (≈ 10.1 µM) | 3.13 (≈ 5.04 µM) | 6.25 (≈ 10.1 µM) | 1.56 (≈ 2.51 µM) | 15.2 (≈ 24.5 µM) | 3.13 (≈ 5.04 µM) | 36.4 (≈ 58.6 µM) | – | – | – | – |
| N=C(N)NCCCOc1cc(OCCCNC(=N)N)cc(-c2ccc3ccc(-c4cc(OCCCNC(=N)N)cc(OCCCNC(=N)N)c4)cc3c2)c1 [Compound 117] | 12.5 (≈ 16.9 µM) | 1.56 (≈ 2.11 µM) | 1.56 (≈ 2.11 µM) | 0.78 (≈ 1.05 µM) | 31.6 (≈ 42.7 µM) | 1.56 (≈ 2.11 µM) | – | – | – | – | – |
| NCCCOc1cc(-c2cn(-c3cccc(OCCCN)c3)nn2)cc(-c2cn(-c3cccc(OCCCN)c3)nn2)c1 [Compound 107] | 25 (≈ 42.8 µM) | 50 (≈ 85.7 µM) | > 50 | 25 (≈ 42.8 µM) | 131 (≈ 224 µM) | > 50 | – | – | – | – | – |
| CC(C)(C)c1ccc(-c2cc(-c3cc(OCCCN)cc(OCCCN)c3)cc(-c3cc(OCCCN)cc(OCCCN)c3)c2)cc1 [Compound 113] | 12.5 (≈ 19.1 µM) | 1.56 (≈ 2.38 µM) | 3.13 (≈ 4.78 µM) | 1.56 (≈ 2.38 µM) | 99.5 (≈ 152 µM) | 3.13 (≈ 4.78 µM) | – | – | – | – | – |
| N=C(N)NCCCOc1ccc(-n2cc(-c3ccc4ccc(-c5cn(-c6ccc(OCCCNC(=N)N)c(OCCCNC(=N)N)c6)nn5)cc4c3)nn2)cc1OCCCNC(=N)N [Compound 104] | 50 (≈ 57.1 µM) | 25 (≈ 28.6 µM) | > 50 | 25 (≈ 28.6 µM) | 34.7 (≈ 39.7 µM) | > 50 | 54 (≈ 61.7 µM) | – | – | – | – |
| Cc1ccc(-c2cc(-c3cc(OCCCN)cc(OCCCN)c3)cc(-c3cc(OCCCN)cc(OCCCN)c3)c2)cc1 [Compound 110] | 25 (≈ 40.8 µM) | 0.78 (≈ 1.27 µM) | 6.25 (≈ 10.2 µM) | 1.56 (≈ 2.55 µM) | 129 (≈ 211 µM) | 3.13 (≈ 5.11 µM) | – | – | – | – | – |
